Values quoted from earlier work, collected in US20260272955A1, “Controlled Release Formulations of Highly Lipophilic Physiologically Active Substances” (ADD Advanced Drug Delivery Technologies Ltd., priority 2019, published 2026).

Settings: decimal logarithm of the n-octanol/water partition coefficient; values typically refer to room temperature (25° C.)

C=C(C)[C@@H]1CCC(C)=C[C@H]1c1c(O)cc(CCCCC)cc1O [Canapure PH, 2-[1R-3-methyl-6R-(1-methylethenyl)-2-cyclohexen-1-yl]-5-pentyl-1,3-benzenediol]
log P: about 6.1
